Test results taken from ChEMBL document CHEMBL1143181, “2-Aminoresorcinol is a potent alpha-glucosidase inhibitor” (Bioorg Med Chem Lett, 2008).

Legend:
[1] = molecular target: Sucrase-isomaltase, intestinal (Rattus norvegicus) (UniProt P23739); experiment: Inhibition of rat intestinal sucrase at 500 uM
[2] = molecular target: T1, Sucrase-isomaltase, intestinal (Rattus norvegicus, UniProt P23739); experiment: Inhibition of rat intestinal sucrase
[3] = molecular target: T2, Beta-galactosidase (Bos taurus) (UniProt Q58D55); experiment: Inhibition of bovine liver beta galactosidase; conditions: concentration not given here
T2 sequence (whole entry): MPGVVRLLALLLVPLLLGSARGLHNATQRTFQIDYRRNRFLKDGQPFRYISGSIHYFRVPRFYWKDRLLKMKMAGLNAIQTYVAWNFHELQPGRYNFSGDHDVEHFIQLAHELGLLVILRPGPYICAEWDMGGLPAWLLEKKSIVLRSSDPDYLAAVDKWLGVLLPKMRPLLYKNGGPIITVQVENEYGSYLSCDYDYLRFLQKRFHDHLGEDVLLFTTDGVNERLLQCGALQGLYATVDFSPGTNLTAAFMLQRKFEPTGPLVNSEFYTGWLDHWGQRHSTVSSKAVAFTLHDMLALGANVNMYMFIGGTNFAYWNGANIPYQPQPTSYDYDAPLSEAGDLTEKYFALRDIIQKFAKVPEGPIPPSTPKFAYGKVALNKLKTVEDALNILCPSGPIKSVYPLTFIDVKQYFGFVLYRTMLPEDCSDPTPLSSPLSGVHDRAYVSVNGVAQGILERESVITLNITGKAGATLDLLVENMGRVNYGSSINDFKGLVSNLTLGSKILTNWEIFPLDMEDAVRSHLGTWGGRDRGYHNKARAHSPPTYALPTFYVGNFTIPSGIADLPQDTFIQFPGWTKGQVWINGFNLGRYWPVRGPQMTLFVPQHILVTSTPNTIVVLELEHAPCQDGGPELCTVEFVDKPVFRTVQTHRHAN

[4] = system: Prunus dulcis; experiment: Inhibition of almond beta glucosidase; conditions: concentration not given here
[5] = molecular target: T3, Alpha-amylase (Sus scrofa domesticus) (UniProt Q7M328); experiment: Inhibition of pig pancreas alpha amylase; conditions: concentration not given here
T3 sequence (whole entry): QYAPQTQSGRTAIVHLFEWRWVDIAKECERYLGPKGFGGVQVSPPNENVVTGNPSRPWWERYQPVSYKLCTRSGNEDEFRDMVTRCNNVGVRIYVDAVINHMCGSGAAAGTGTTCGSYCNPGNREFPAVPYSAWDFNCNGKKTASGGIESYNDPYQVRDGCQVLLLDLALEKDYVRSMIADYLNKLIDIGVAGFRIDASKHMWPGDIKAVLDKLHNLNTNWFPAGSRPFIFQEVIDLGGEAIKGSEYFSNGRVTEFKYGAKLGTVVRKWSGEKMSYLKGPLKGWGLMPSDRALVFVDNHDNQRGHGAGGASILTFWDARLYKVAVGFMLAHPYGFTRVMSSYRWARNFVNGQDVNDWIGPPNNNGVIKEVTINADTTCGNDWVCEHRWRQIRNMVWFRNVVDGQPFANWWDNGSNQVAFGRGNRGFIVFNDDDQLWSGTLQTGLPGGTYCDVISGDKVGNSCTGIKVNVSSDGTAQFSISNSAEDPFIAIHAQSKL

[6] = system: Canavalia ensiformis; experiment: Inhibition of jack bean alpha mannosidase; conditions: concentration not given here
[7] = molecular target: Alpha-galactosidase (Coffea arabica) (UniProt Q5DUH8); experiment: Inhibition of green coffee bean alpha galactosidase; conditions: concentration not given here
Sequence of Alpha-galactosidase (Coffea arabica) (Q5DUH8 as listed by the source): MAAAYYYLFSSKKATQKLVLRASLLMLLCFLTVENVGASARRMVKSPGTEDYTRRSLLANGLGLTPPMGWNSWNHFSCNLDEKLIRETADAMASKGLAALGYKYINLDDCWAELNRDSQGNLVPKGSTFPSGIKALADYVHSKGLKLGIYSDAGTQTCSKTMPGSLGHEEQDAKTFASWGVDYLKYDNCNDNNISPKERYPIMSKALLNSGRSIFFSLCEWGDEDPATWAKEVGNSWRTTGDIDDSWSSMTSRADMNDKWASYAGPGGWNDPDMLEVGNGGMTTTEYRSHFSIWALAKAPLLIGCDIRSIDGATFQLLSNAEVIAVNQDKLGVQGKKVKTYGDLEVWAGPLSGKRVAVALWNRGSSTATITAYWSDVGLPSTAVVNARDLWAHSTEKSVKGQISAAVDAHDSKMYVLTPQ

[8] = molecular target: Sucrase-isomaltase, intestinal (Rattus norvegicus) (UniProt P23739); experiment: Inhibition of rat intestinal isomaltase at 500 uM
[9] = molecular target: T1, Sucrase-isomaltase, intestinal; experiment: Inhibition of sucrose hydrolyzing activity of rat intestinal alpha glucosidase

T1 sequence (P23739 1-1013 limits assumed): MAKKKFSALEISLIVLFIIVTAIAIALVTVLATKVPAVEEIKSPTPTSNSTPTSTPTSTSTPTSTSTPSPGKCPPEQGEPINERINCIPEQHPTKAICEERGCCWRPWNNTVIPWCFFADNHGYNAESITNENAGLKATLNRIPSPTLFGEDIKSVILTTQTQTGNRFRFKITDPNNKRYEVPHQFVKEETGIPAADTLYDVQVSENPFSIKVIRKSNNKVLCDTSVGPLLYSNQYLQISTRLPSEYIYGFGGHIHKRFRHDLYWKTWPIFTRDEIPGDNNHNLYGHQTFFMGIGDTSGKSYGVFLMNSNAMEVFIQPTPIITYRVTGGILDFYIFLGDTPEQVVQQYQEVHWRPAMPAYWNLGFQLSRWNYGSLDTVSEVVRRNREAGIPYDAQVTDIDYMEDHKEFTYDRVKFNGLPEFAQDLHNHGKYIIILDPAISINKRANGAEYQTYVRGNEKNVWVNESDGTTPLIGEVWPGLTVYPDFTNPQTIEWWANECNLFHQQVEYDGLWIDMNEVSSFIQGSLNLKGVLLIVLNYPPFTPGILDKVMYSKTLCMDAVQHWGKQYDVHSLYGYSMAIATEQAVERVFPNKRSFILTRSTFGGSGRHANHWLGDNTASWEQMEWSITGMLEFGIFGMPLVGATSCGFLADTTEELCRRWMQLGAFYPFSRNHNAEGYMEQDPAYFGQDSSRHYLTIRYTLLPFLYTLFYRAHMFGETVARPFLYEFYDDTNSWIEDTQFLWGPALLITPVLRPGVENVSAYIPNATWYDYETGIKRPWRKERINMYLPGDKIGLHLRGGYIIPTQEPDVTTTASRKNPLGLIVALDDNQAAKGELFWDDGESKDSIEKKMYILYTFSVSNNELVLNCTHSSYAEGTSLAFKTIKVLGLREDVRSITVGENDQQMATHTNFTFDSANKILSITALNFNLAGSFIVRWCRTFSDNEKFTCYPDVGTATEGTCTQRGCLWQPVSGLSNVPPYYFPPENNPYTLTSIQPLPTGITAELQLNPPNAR
T1 sequence (P23739 1014-1841 limits assumed): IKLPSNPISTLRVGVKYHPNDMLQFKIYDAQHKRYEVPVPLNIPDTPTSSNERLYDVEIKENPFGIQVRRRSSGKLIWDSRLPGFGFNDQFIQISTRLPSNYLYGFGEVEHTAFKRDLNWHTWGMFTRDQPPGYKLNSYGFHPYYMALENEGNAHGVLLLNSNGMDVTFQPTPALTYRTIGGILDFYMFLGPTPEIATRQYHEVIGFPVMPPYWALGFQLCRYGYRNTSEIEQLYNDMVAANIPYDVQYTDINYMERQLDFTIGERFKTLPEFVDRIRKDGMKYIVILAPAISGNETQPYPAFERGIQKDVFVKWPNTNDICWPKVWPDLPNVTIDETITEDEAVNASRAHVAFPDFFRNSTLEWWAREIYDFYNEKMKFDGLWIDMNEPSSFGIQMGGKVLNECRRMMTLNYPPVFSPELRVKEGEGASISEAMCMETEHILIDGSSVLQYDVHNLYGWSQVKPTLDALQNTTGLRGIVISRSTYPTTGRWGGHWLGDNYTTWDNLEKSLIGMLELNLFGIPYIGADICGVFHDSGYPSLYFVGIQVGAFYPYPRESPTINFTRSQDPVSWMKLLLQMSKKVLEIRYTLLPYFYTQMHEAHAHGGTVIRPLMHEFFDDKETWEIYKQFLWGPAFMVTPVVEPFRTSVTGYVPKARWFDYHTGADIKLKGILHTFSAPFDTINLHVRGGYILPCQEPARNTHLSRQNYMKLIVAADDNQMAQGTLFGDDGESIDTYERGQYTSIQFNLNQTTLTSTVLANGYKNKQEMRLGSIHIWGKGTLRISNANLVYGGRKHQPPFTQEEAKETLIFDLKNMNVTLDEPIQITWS
Sequence of Sucrase-isomaltase, intestinal (Rattus norvegicus) (P23739 1-1013 limits assumed): as the sequence (P23739 1-1013 limits assumed) above
Sequence of Sucrase-isomaltase, intestinal (Rattus norvegicus) (P23739 1014-1841 limits assumed): as the sequence (P23739 1014-1841 limits assumed) above

Row | SMILES | inhibition [1] [%] | IC50 [2] [µM] | inhibition [3] [%] | inhibition [4] [%] | inhibition [5] [%] | inhibition [6] [%] | inhibition [7] [%] | inhibition [8] [%] | Ki [9] [µM]
1 | N[C@H]1[C@H](O)CCC[C@@H]1O | 10 | > 500 | – | – | – | – | – | – | –
2 | CC(=O)c1ccc(O)c(N)c1O | – | 3.6 | 5 | 7 | 15 | 4 | 10 | – | –
3 | O=c1cc(-c2ccccc2)oc2cc(O)c(O)c(O)c12 [BAICALEIN] | – | 52 | – | – | – | – | – | – | –
4 | Nc1ccc(O)cc1O | 46 | > 500 | – | – | – | – | – | – | –
5 | Nc1c(O)cc2oc(-c3ccccc3)cc(=O)c2c1O | – | 2.4 | 10 | 19 | 12 | 7 | 6 | 32 | –
6 | Nc1c(O)cccc1O | – | 4.2 | 4 | 12 | 11 | 3 | 8 | – | 4.2
7 | Oc1cccc(O)c1O [PYROGALLOL] | 42 | > 500 | – | – | – | – | – | – | –
